# Laboratory results taken from PubChem BioAssay (NCI).
# Several values for one entry are separate records, joined by “and”; a condition that tells them apart may be missing. Equal values may be shown once.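 In this assay, cells in 96-well plates receive the compound at five concentrations for 48 hours. Endpoints are linearly interpolated between the surrounding concentrations. GI50 is the concentration that inhibits growth by half. TGI denotes the concentration required for complete inhibition of growth.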
# System: NCI/ADR-RES ovarian
# Experiment: inhibition of tumour cell growth, NCI panel, 48 h
Structure (SMILES),GI50,TGI
CCCC(=O)Nc1cn(COC)c(C(=O)N2C[C@@H]3C[C@]34C2=CC(=O)c2[nH]cc(C)c24)n1,14.9 µM,20.7 µM and 28.9 µM
CNCCOC(=O)/C=C1\CC[C@H]2[C@@H]([C@@H](O)C(=O)[C@@H]3[C@]2(C)CC[C@H](O)[C@]3(C)C(=O)OC)[C@H]1C,0.22 µM,0.444 µM
Cc1nnc(Nc2ccc(NC(=O)Nc3ccc(Cl)cc3)cc2)c2ccccc12,3.63 µM,14.9 µM
CC(=O)ON1CCCC(P(=O)(OCCSC(=O)C(C)(C)C)OCCSC(=O)C(C)(C)C)C1=O (stereo not given),1.35 µM,12.4 µM
COC(=O)[C@]12CC[C@@H](C)[C@H](C)[C@@H]1C1=CC[C@@H]3[C@@]4(C)C[C@@H](O)[C@H](O)[C@@](C)(CO)C4=CC[C@@]3(C)[C@]1(C)CC2,16.6 µM,33.9 µM
COc1ccc(C(=O)Nc2ccc(O)c(=O)cc2)cc1,–,> 100 µM
Cc1nc(N)sc1N=Nc1ccccc1Br,–,72.5 µM
NS(=O)(=O)c1ccc(N=Nc2c(O)c(C(=O)O)cc3ccccc23)cc1,–,> 100 µM
Cc1c(N(C)C)ccc2c(=O)c3cccc(CC(=O)O)c3oc12,–,> 100 µM
CC(NCCC(c1ccccc1)c1ccccc1)c1ccccc1 (stereo not given),2.77 µM,7.68 µM
C/C(N=NC(=S)N1CC2CCC(CC2)C1)=C1\C=CC=CN1O,–,8.73 µM
O=C(Nc1ccc(Br)cc1F)c1cc(Cl)ccc1O,0.749 µM,5.67 µM
NC(N)=N/N=C/c1c(Cl)cccc1Cl,28.9 µM,> 100 µM
S=c1[nH]c(=S)c2cc3ccccc3nc2[nH]1,> 100 µM,> 100 µM

# System: SK-MEL-2 melanoma
# Experiment: inhibition of tumour cell growth, NCI panel, 48 h
Structure (SMILES),GI50,TGI
Clc1cc2c(c(CSc3nc4ccccc4n4cccc34)c1)OCOC2,13.6 µM,44.9 µM
CN1CCN(c2ccc(Nc3cc(-c4cccc(-n5ccc6cc(C7CC7)cc(F)c6c5=O)c4CO)cn(C)c3=O)nc2)CC1,15 µM,35.1 µM
COc1ccc2nc3ccccc3c(NCc3ccc(F)cc3)c2c1,3.19 µM,10.4 µM
CCn1c(O)c(/C=N/NC(=O)C(C)c2ccc(CC(C)C)cc2)sc1=S (stereo not given),3.19 µM,> 49.8 µM
C[C@@H]1C[C@@H]([C@@H](CC2CC(=O)NC(=O)C2)OC(=O)CC(=O)c2ccccc2)C(=O)[C@@H](C)C1,0.88 µM,22.8 µM
CCOC(=O)Nc1cc2c(c(N)n1)N=C(c1ccccc1)CO2,41.7 µM,> 100 µM
CC1CC2CCCC(O)=C2C(=O)O1 (stereo not given),–,> 100 µM
CC(C)(/C=C(\C#N)C(=O)N1CCC[C@@H](n2nc(-c3ccc(Oc4ccccc4)cc3F)c3c(N)ncnc32)C1)N1CCN(C2COC2)CC1,10.1 µM,26.2 µM
O=c1oc2ccc(-c3ccc(F)cc3F)cc2c(=O)n1-c1cccc(C(F)(F)F)c1,0.55 µM,2.85 µM
COC(=O)c1ccc2c(c1)C(=O)c1c-2n(CCCN=[N+]=[N-])c(=O)c2cc(OC)c(OC)cc12,> 100 µM,> 100 µM
O=C(Cc1ccc(F)c(Cl)c1)Nc1cc(C2(C(F)(F)F)CC2)nn1CC1CCCCC1,3.99 µM,13.3 µM
NNC(=O)CNc1cccc(Br)c1,–,> 100 µM
NC(N)=NCCCC(=O)O,–,> 100 µM
CCCC(=O)Nc1cn(COC)c(C(=O)N2C[C@@H]3C[C@]34C2=CC(=O)c2[nH]cc(C)c24)n1,2.98 µM,27.3 µM and 9.29 µM
CNCCOC(=O)/C=C1\CC[C@H]2[C@@H]([C@@H](O)C(=O)[C@@H]3[C@]2(C)CC[C@H](O)[C@]3(C)C(=O)OC)[C@H]1C,1.79 µM,4.57 µM
Cc1nnc(Nc2ccc(NC(=O)Nc3ccc(Cl)cc3)cc2)c2ccccc12,2.22 µM,4.59 µM
CC(=O)ON1CCCC(P(=O)(OCCSC(=O)C(C)(C)C)OCCSC(=O)C(C)(C)C)C1=O (stereo not given),4.47 µM,40 µM
COC(=O)[C@]12CC[C@@H](C)[C@H](C)[C@@H]1C1=CC[C@@H]3[C@@]4(C)C[C@@H](O)[C@H](O)[C@@](C)(CO)C4=CC[C@@]3(C)[C@]1(C)CC2,17.8 µM,33.1 µM
COc1ccc(C(=O)Nc2ccc(O)c(=O)cc2)cc1,–,> 100 µM
Cc1nc(N)sc1N=Nc1ccccc1Br,–,55.2 µM
NS(=O)(=O)c1ccc(N=Nc2c(O)c(C(=O)O)cc3ccccc23)cc1,–,> 100 µM
Cc1c(N(C)C)ccc2c(=O)c3cccc(CC(=O)O)c3oc12,–,> 100 µM
CC(NCCC(c1ccccc1)c1ccccc1)c1ccccc1 (stereo not given),1.9 µM,3.77 µM
C/C(N=NC(=S)N1CC2CCC(CC2)C1)=C1\C=CC=CN1O,–,> 100 µM
O=C(Nc1ccc(Br)cc1F)c1cc(Cl)ccc1O,0.372 µM,2 µM
NC(N)=N/N=C/c1c(Cl)cccc1Cl,18.5 µM,36.1 µM
S=c1[nH]c(=S)c2cc3ccccc3nc2[nH]1,26.1 µM,84.7 µM

# System: TK-10 renal
# Experiment: inhibition of tumour cell growth, NCI panel, 48 h
Structure (SMILES),GI50,TGI
Clc1cc2c(c(CSc3nc4ccccc4n4cccc34)c1)OCOC2,3.49 µM,60.3 µM
CN1CCN(c2ccc(Nc3cc(-c4cccc(-n5ccc6cc(C7CC7)cc(F)c6c5=O)c4CO)cn(C)c3=O)nc2)CC1,3.69 µM,14.3 µM
COc1ccc2nc3ccccc3c(NCc3ccc(F)cc3)c2c1,2.89 µM,10.3 µM
CCn1c(O)c(/C=N/NC(=O)C(C)c2ccc(CC(C)C)cc2)sc1=S (stereo not given),2.28 µM,> 50.7 µM
C[C@@H]1C[C@@H]([C@@H](CC2CC(=O)NC(=O)C2)OC(=O)CC(=O)c2ccccc2)C(=O)[C@@H](C)C1,0.306 µM,> 24.3 µM
CCOC(=O)Nc1cc2c(c(N)n1)N=C(c1ccccc1)CO2,0.704 µM,19.3 µM
CC1CC2CCCC(O)=C2C(=O)O1 (stereo not given),–,> 100 µM
CC(C)(/C=C(\C#N)C(=O)N1CCC[C@@H](n2nc(-c3ccc(Oc4ccccc4)cc3F)c3c(N)ncnc32)C1)N1CCN(C2COC2)CC1,4.12 µM,15.9 µM
O=c1oc2ccc(-c3ccc(F)cc3F)cc2c(=O)n1-c1cccc(C(F)(F)F)c1,3.52 µM,15.8 µM
COC(=O)c1ccc2c(c1)C(=O)c1c-2n(CCCN=[N+]=[N-])c(=O)c2cc(OC)c(OC)cc12,> 100 µM,> 100 µM
O=C(Cc1ccc(F)c(Cl)c1)Nc1cc(C2(C(F)(F)F)CC2)nn1CC1CCCCC1,4.78 µM,> 15 µM
NNC(=O)CNc1cccc(Br)c1,–,> 100 µM
NC(N)=NCCCC(=O)O,–,> 100 µM
CCCC(=O)Nc1cn(COC)c(C(=O)N2C[C@@H]3C[C@]34C2=CC(=O)c2[nH]cc(C)c24)n1,3 µM,19.1 µM and 6.18 µM
CNCCOC(=O)/C=C1\CC[C@H]2[C@@H]([C@@H](O)C(=O)[C@@H]3[C@]2(C)CC[C@H](O)[C@]3(C)C(=O)OC)[C@H]1C,0.262 µM,0.76 µM
Cc1nnc(Nc2ccc(NC(=O)Nc3ccc(Cl)cc3)cc2)c2ccccc12,3.19 µM,9.42 µM
CC(=O)ON1CCCC(P(=O)(OCCSC(=O)C(C)(C)C)OCCSC(=O)C(C)(C)C)C1=O (stereo not given),3.57 µM,93.3 µM
COC(=O)[C@]12CC[C@@H](C)[C@H](C)[C@@H]1C1=CC[C@@H]3[C@@]4(C)C[C@@H](O)[C@H](O)[C@@](C)(CO)C4=CC[C@@]3(C)[C@]1(C)CC2,19.4 µM,34.5 µM
COc1ccc(C(=O)Nc2ccc(O)c(=O)cc2)cc1,–,> 100 µM
Cc1nc(N)sc1N=Nc1ccccc1Br,–,70.4 µM
NS(=O)(=O)c1ccc(N=Nc2c(O)c(C(=O)O)cc3ccccc23)cc1,–,> 100 µM
Cc1c(N(C)C)ccc2c(=O)c3cccc(CC(=O)O)c3oc12,–,> 100 µM
CC(NCCC(c1ccccc1)c1ccccc1)c1ccccc1 (stereo not given),1.93 µM,4 µM
C/C(N=NC(=S)N1CC2CCC(CC2)C1)=C1\C=CC=CN1O,–,> 100 µM
O=C(Nc1ccc(Br)cc1F)c1cc(Cl)ccc1O,3.5 µM,10.2 µM
NC(N)=N/N=C/c1c(Cl)cccc1Cl,21.9 µM,66.3 µM
S=c1[nH]c(=S)c2cc3ccccc3nc2[nH]1,94.2 µM,> 100 µM
